Measurements: US20150344427A1 (EPIZYME, INC., priority 2012, published 2015)

What follows are molecules tested on H3K27 trimethylation in WSU-DLCL2 cells (assay: WSU-DLCL2 Methylation Assay (H3K27me3 ELISA)). Settings: Homo sapiens, WSUDLCL2, 96 hours incubation, H3K27me3 normalised to total Histone H3.
Type: cell-based
Excerpt: WSU-DLCL2 suspension cells were purchased from DSMZ (German Collection of Microorganisms and Cell Cultures, Braunschweig, Germany). RPMI/Glutamax Medium, Penicillin-Streptomycin, Heat Inactivated Fetal Bovine Serum, and D-PBS were purchased from Life Technologies, Grand Island, N.Y., USA. Extraction Buffer and Neutralization Buffer (5×) were purchased from Active Motif, Carlsbad, Calif., USA. Rabbit anti-Histone H3 antibody was purchased from Abcam, Cambridge, Mass., USA. Rabbit anti-H3K27me3 and HRP-conjugated anti-rabbit-IgG were purchased from Cell Signaling Technology, Danvers, Mass., USA. TMB “Super Sensitive” substrate was sourced from BioFX Laboratories, Owings Mills, Md., USA. IgG-free Bovine Serum Albumin was purchased from Jackson ImmunoResearch, West Grove, Pa., USA. PBS with Tween (10×PBST) was purchased from KPL, Gaithersburg, Md., USA. Sulfuric Acid was purchased from Ricca Chemical, Arlington, Tex., USA. Immulon ELISA plates were purchased from Thermo, Rochester, N.Y., USA. V-bottom cell culture plates were purchased from Corning Inc., Corning, N.Y., USA. V-bottom polypropylene plates were purchased from Greiner Bio-One, Monroe, N.C., USA.
WSU-DLCL2 suspension cells were maintained in growth medium (RPMI 1640 supplemented with 10% v/v heat inactivated fetal bovine serum and 100 units/mL penicillin-streptomycin) and cultured at 37° C. under 5% CO2 Under assay conditions, cells were incubated in Assay Medium (RPMI 1640 supplemented with 20% v/v heat inactivated fetal bovine serum and 100 units/mL penicillin-streptomycin) at 37° C. under 5% CO2 on a plate shaker.
WSU-DLCL2 cells were seeded in assay medium at a concentration of 50,000 cells per mL to a 96-well V-bottom cell culture plate with 200 μL per well. Compound (1 μL) from 96 well source plates was added directly to V-bottom cell plate. Plates were incubated on a titer-plate shaker at 37° C., 5% CO2 for 96 hours. After four days of incubation, plates were spun at 241×g for five minutes and medium was aspirated gently from each well of cell plate without disturbing cell pellet. Pellet was resuspended in 200 μL DPBS and plates were spun again at 241×g for five minutes. The supernatant was aspirated and cold (4° C.) Extraction buffer (100 μL) was added per well. Plates were incubated at 4° C. on orbital shaker for two hours. Plates were spun at 3427×g×10 minutes. Supernatant (80 μL per well) was transferred to its respective well in 96 well V-bottom polypropylene plate. Neutralization Buffer 5× (20 μL per well) was added to V-bottom polypropylene plate containing supernatant. V-bottom polypropylene plates containing crude histone preparation (CHP) were incubated on orbital shaker x five minutes. Crude Histone Preparations were added (2 μL per well) to each respective well into duplicate 96 well ELISA plates containing 100 μL Coating Buffer (1×PBS+BSA 0.05% w/v). Plates were sealed and incubated overnight at 4° C. The following day, plates were washed three times with 300 μL per well 1×PBST. Wells were blocked for two hours with 300 μL per well ELISA Diluent ((PBS (1×) BSA (2% w/v) and Tween20 (0.05% v/v)). Plates were washed three times with 1×PBST. For the Histone H3 detection plate, 100 μL per well were added of anti-Histone-H3 antibody (Abcam, ab1791) diluted 1:10,000 in ELISA Diluent. For H3K27 trimethylation detection plate, 100 μL per well were added of anti-H3K27me3 diluted 1:2000 in ELISA diluent. Plates were incubated for 90 minutes at room temperature. Plates were washed three times with 300 μL 1×PBST per well. For Histone H3 detection, 100 μL of HRP-conjugated anti-rabbit IgG antibody diluted to 1:6000 in ELISA diluent was added per well. For H3K27me3 detection, 100 μL of HRP conjugated anti-rabbit IgG antibody diluted to 1:4000 in ELISA diluent was added per well. Plates were incubated at room temperature for 90 minutes. Plates were washed four times with 1×PBST 300 μL per well. TMB substrate 100 μL was added per well. […]
`CCCN(c1cc(-c2ccc(OCCOC)cc2)cc(C(=O)NCc2c(C)[nH]c(C)cc2=O)c1C)[C@H]1CC[C@H](N(C)C)CC1` [Compound 94] showed an IC50 of 5.1 µM. Molecule `CCN(c1cc(-c2ccc(OCCOC)cc2)cc(C(=O)NCc2c(Cl)[nH]c(C)cc2=O)c1C)[C@H]1CC[C@H](N(C)C)CC1` [Compound 92] has an IC50 of 3.9 µM. `CCN(c1cc(-c2ccc(OCCOC)cc2)cc(C(=O)NCc2c(C)[nH]c(C)cc2=O)c1C)[C@H]1CC[C@H](N(C)CCOC)CC1` [Compound 100] showed an IC50 of 7.5 µM. `CCn1c(C)cc(=O)c(CNC(=O)c2cc(Cl)cc(N(CC)[C@H]3CC[C@H](N(C)C)CC3)c2C)c1C` [Compound 87] showed an IC50 greater than 50 µM. Molecule `CCN(c1cc(-c2ccc(OCCOC)cc2)cc(C(=O)NCc2c(C)[nH]c(C)cc2=O)c1C)[C@H]1CC[C@H](N(C)C)CC1` [Compound 93] has an IC50 of 1.7 µM. For `CCN(c1cc(-c2cnn(C)c2)cc(C(=O)NCc2c(Cl)[nH]c(C)cc2=O)c1C)[C@H]1CC[C@H](N(C)C)CC1` [Compound 89], the IC50 was 5.9 µM. Molecule `CCN(c1cc(-c2ccc(C)nc2)cc(C(=O)NCc2c(Cl)[nH]c(C)cc2=O)c1C)[C@H]1CC[C@H](N(C)C)CC1` [Compound 90] has an IC50 of 2.7 µM. Work on `CCN(c1cc(Cl)cc(C(=O)NCc2c(C)[nH]c(C)cc2=O)c1C)[C@H]1CC[C@H](N(C)C)CC1` [Compound 1, 5-chloro-N-((2,6-dimethyl-4-oxo-1,4-dihydropyridin-3-yl)methyl)-3-(((trans)-4-(dimethylamino)cyclohexyl)(ethyl)amino)-2-methylbenzamide] yielded an IC50 of 8.44 µM. For `CCN(c1cc(-c2ccc(COC)nc2)cc(C(=O)NCc2c(Cl)[nH]c(C)cc2=O)c1C)[C@H]1CC[C@H](N(C)C)CC1` [Compound 88], the IC50 was 2.4 µM. Molecule `CCN(c1cc(Cl)cc(C(=O)NCc2c(C)n(C)c(C)cc2=O)c1C)[C@H]1CC[C@H](N(C)C)CC1` [Compound 86] has an IC50 greater than 50 µM. `CCN(c1cc(-c2cnc(C)cn2)cc(C(=O)NCc2c(Cl)[nH]c(C)cc2=O)c1C)[C@H]1CC[C@H](N(C)C)CC1` [Compound 91] gave an IC50 of 3.3 µM.
